Results from US12594280B2, “Antiviral compositions for treating the flu” (UNIVERSITE CLAUDE BERNARD LYON 1, priority 2015, dated 2026).
Like-named read-outs stand apart in the source and are kept apart here.

Tests used:
[1] = test system: H1N1 pdm09 virus (A/Pdm/09); format: cell-based, human influenza A virus
H1N1 pdm09 virus [2] = experiment: in vivo antiviral effect, treatment started before H1N1 infection of mice; settings: B57BL/6 mice, gavage on Day-1, day of and 3 days following infection
Procedure: B57BL/6 mice (age 7-8 weeks) are treated by gavage before (Day-1), the day of, and 3 days following infection with H1N1 pdm09 virus, according to the protocol shown diagrammatically in FIG. 5A.
The following parameters are evaluated over time: • FIG. 5B: Survival rate over time, up to 14 days post-infection; • FIG. 5C: Weight loss and gain observed over time; • FIG. 5D: Viral titer in the lungs of infected and treated mice.

[3] = in vivo evaluation in mice of toxicity (change in weight); settings: gavage; oseltamivir 10 mg/kg/day, etilefrine 3 mg/kg/day, diltiazem 90 mg/kg/day
Procedure: FIG. 4. In vivo evaluation of the toxicity of the following molecules: oseltamivir, monensin, diltiazem, etilefrine and isoxicam. The “Saline” control indicates the weight of mice treated with PBS. The curve represents the change in weight (weight gain/loss expressed as a percentage) of the various groups of mice over time.
The “Saline” control denotes untreated mice, having been treated with PBS.
The following daily amounts were administered by gavage to the mice: • oseltamivir: 10 mg/kg/day • etilefrine: 3 mg/kg/day • diltiazem: 90 mg/kg/day

[4] = test system: A/Moscow/10/99 (H3N2) strain; format: cell-based, human influenza A virus; settings: A549 cells, FIG. 2
H1N1 pdm09 virus [5] = format: cell-based, human influenza A virus
influenza H1N1 pdm09 = format: cell-based, influenza virus
H1N1 pdm09 virus [6] = experiment: in vivo antiviral effect, treatment 24 hours after H1N1 infection of mice; settings: B57BL/6 mice, gavage, treatment 24 hours after infection, up to 14 days post-infection
Procedure: B57BL/6 mice (age 7-8 weeks) are treated by gavage after infection with H1N1 pdm09 virus, according to the protocol shown diagrammatically in FIG. 6A. Survival rate over time is measured for infected mice receiving no treatment (FIG. 6B); treated with oseltamivir (FIG. 6C); and treated with diltiazem (FIG. 6D). The survival rate of mice treated with oseltamivir, and of those treated with diltiazem, is 100%.

H1N1 pdm09 = format: cell-based, human influenza A virus

NC(=O)c1ncn([C@@H]2O[C@H](CO)[C@@H](O)[C@H]2O)n1 [ribavirin]
normalized virus production [1]: significant decrease

CCNCC(O)c1cccc(O)c1 (stereo not drawn) [etilefrine]
survival at 14 days (H1N1 pdm09 virus [2]): 70%
toxicity (change in weight of the mice) [3]: clearly nontoxic
normalized virus production [1]: significant decrease
antiviral effects [4]: significant from the lowest concentration tested
concentration that completely inhibits virus production [4]: 0.018 µM

CC(=O)O[C@H]1C[C@H](O[C@H]2[C@@H](O)C[C@H](O[C@H]3[C@@H](O)C[C@H](O[C@H]4CC[C@@]5(C)[C@H](CC[C@@H]6[C@@H]5C[C@@H](O)[C@]5(C)[C@@H](C7=CC(=O)OC7)CC[C@]65O)C4)O[C@@H]3C)O[C@@H]2C)O[C@H](C)[C@H]1O[C@@H]1O[C@H](CO)[C@@H](O)[C@H](O)[C@H]1O [lanatoside C]
normalized virus production [1]: did not make it possible to confirm the antiviral activity

CC[C@@]1([C@@H]2O[C@@H]([C@H]3O[C@@](O)(CO)[C@H](C)C[C@@H]3C)C[C@@H]2C)CC[C@H]([C@]2(C)CC[C@]3(C[C@H](O)[C@@H](C)[C@@H]([C@@H](C)[C@@H](OC)[C@H](C)C(=O)O)O3)O2)O1 [monensin]
normalized virus production [1]: significant decrease
decrease of virus production relative to the control value (H1N1 pdm09 virus [5]): about 72%

COc1ccc([C@@H]2Sc3ccccc3N(CCN(C)C)C(=O)[C@@H]2OC(C)=O)cc1 [diltiazem]
survival at 14 days (H1N1 pdm09 virus [2]): 90%
antiviral effect on virus production (influenza H1N1 pdm09; diltiazem 9 μM): no significant antiviral affect
antiviral effect on virus production (influenza H1N1 pdm09; diltiazem 90 μM, compared with oseltamivir 1 μM): comparable antiviral effect
toxicity (change in weight of the mice) [3]: clearly nontoxic
normalized virus production [1]: significant decrease
virus production, comparison of the conditions ([1]; diltiazem alone at 9 nM, FIG. 3B): best results
decrease of relative viral titer / virus production relative to the control value (H1N1 pdm09 virus [5]): about 20%
survival rate (H1N1 pdm09 virus [6]): 100%

CCOC(=O)C1=C[C@@H](OC(CC)CC)[C@H](NC(C)=O)[C@@H](N)C1 [oseltamivir]
survival at 14 days (H1N1 pdm09 virus [2]): 60%
decrease of virus production relative to the control value (influenza H1N1 pdm09): up to 3 log 10
antiviral effect on virus production (influenza H1N1 pdm09; oseltamivir 0.1 μM): no significant antiviral affect
toxicity (change in weight of the mice) [3]: highest cell toxicity
virus production decreased to ([1]; oseltamivir alone, FIGS. 3A and 3B): about 40%
Dose Oseltamivir (H1N1 pdm09; Fa = 0.90 (90%)): 7.50797 µM
Dose Oseltamivir (H1N1 pdm09; Fa = 0.95 (95%)): 62.435 µM
Dose Oseltamivir (H1N1 pdm09; Fa = 0.97 (97%)): 281.813 µM
virus production decreased to a value relative to the control value (H1N1 pdm09 virus [5]): about 55%
survival rate (H1N1 pdm09 virus [6]): 100%
